{
  "source": "patent EP4803094A2",
  "about": "“GLP-1/GIP DUAL, GLP-1/GCG DUAL AND GLP-1/GIP/GCG TRIPLE RECEPTOR AGONISTS” (Sun Pharmaceutical Industries Limited, priority 2023, dated 2024)",
  "key": {"GIPR": {"biological_target": "T1, GIPR (Homo sapiens, UniProt P48546)", "T1 sequence (P48546 22-466)": "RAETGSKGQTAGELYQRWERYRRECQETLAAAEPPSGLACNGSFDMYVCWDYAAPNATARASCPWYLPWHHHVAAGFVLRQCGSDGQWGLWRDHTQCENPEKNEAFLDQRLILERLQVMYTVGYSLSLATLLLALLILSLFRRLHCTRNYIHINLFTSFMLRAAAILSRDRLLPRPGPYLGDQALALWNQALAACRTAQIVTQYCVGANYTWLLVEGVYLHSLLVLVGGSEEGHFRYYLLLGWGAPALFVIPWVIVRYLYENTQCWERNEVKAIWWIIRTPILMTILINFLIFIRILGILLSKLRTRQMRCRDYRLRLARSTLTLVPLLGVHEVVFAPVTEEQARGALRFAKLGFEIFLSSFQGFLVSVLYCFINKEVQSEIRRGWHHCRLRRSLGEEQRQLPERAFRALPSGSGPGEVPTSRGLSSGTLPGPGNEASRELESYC", "test": "Hit Hunter cAMP assay in cells stably expressing GIPR", "assay_type": "cell-based", "settings": "values in nM, read-out: EC50 value GIP", "description": "(§1) Stably expressing GLP-1R, GIPR or GCGR cell lines were used to determine in-vitro potency of the compounds as described herein. Signaling by the GLP-1R, GIP-R, and GCG-R involves activation of adenylate cyclase and cAMP production. Hit Hunter® cAMP assays monitor the activation of GLP-1R, GIPR or GCGR via Gi and Gs secondary messenger signaling using a technology developed by DiscoverX which is called Enzyme Fragment Complementation (EFC) with β-galactosidase (β-Gal) as the functional reporter. The enzyme is split into two complementary portions: EA for Enzyme Acceptor and ED for Enzyme Donor. ED is fused to cAMP and in the assay competes with cAMP generated by cells for binding to a cAMP-specific antibody. Active β-Gal is formed by complementation of exogenous EA to any unbound ED cAMP. Active enzyme can then convert a chemiluminescent substrate, generating an output signal detectable on a standard microplate reader. Three different assays were performed using cells expressing either of the three receptors. cAMP Hunter cell lines were expanded from freezer stocks according to standard procedures. […] Microplates were read following signal generation with a PerkinElmer EnvisionTM instrument for chemiluminescent signal detection. […] Four parametric logistic curve was generated and EC50 was determined. […]"}, "GLP-1R": {"biological_target": "GLP-1R (Homo sapiens, UniProt P43220)", "sequence (P43220 24-463, species assumed)": "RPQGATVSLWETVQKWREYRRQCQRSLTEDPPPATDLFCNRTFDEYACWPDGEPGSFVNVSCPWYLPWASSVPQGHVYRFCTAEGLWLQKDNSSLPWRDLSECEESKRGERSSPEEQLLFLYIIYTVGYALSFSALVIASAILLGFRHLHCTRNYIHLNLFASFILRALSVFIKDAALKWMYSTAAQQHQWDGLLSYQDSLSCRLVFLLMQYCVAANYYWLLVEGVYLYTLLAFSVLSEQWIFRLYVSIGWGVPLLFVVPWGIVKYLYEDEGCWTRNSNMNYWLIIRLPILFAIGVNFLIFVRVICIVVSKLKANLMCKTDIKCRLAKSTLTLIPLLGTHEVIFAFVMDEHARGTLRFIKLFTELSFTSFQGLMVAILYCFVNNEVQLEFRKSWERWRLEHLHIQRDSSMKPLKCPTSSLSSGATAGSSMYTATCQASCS", "test": "Hit Hunter cAMP assay in cells stably expressing GLP-1R", "assay_type": "cell-based", "settings": "GLP-1R-expressing cells, values in nM", "description": "as §1"}, "[1]": {"system": "Type 2 diabetes mouse (db/db) model", "test": "Efficacy study in db/db mice (blood glucose, body weight, food consumption)", "assay_type": "in vivo", "settings": "10 nM/kg s.c. single dose, mean (n=6)", "protocol": "The effect of the compounds as described herein on blood glucose, food intake and body weight were studied in mice. This study was performed in Type 2 diabetes mouse (db/db) model. The animals were divided into 9 treatment groups (n=6): a diabetic control group, Compound 12 (10 nM/kg), Compound 13 (10 nM/kg), Compound 26 (10 nM/kg), Compound 14 (10 nM/kg), Compound 15 (10 nM/kg), Compound 21 (10 nM/kg), Compound 22 (10 nM/kg), and Tirzepatide (10 nM/kg). Baseline blood glucose was measured from all the animals. All the animals were administered with test item subcutaneously. Blood glucose was measured at 4 hr, 8 hr, 12 hr, 24 hr, 48 hr, 72 hr, and 96 hr post treatment. Delta blood glucose (mM) was calculated. Body weight changes and cumulative food consumption were measured at 48 hr and 96 hr post treatment. Table 3. Effect on Blood Glucose"}, "GCGR": {"biological_target": "GCGR (Homo sapiens, UniProt P47871)", "sequence (P47871 26-477, species assumed)": "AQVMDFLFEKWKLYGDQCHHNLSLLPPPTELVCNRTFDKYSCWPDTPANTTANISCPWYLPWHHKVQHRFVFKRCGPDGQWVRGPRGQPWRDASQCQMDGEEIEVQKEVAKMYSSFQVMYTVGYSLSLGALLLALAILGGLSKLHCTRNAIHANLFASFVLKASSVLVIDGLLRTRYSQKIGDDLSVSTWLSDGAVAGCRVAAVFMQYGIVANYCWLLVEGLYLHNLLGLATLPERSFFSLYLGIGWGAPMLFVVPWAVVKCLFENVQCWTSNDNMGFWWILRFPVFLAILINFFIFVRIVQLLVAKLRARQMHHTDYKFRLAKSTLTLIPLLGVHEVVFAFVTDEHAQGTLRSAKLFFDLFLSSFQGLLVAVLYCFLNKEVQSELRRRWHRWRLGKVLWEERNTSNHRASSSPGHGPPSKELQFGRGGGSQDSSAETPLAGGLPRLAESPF", "test": "Hit Hunter cAMP assay in cells stably expressing GCGR", "assay_type": "cell-based", "settings": "values in nM, read-out: EC50 value GCG", "description": "as §1"}},
  "note": "Marks after values point to notes of the source that are not given here.",
  "data": [
    {"smiles": "CC[C@H](C)[C@H](NC(=O)[C@H](Cc1ccccc1)NC(=O)[C@H](C)NC(=O)C(C)(C)NC(=O)[C@H](CCC(N)=O)NC(=O)[C@H](C)NC(=O)[C@H](CCCCNC(=O)COCCOCCNC(=O)C(C)(C)NC(=O)CC[C@H](NC(=O)CCCCCCCCCCCCCCCCCCC(=O)O)C(=O)O)NC(=O)[C@H](CCCCN)NC(=O)[C@H](CC(=O)O)NC(=O)[C@H](CC(C)C)NC(=O)[C@](C)(CC(C)C)NC(=O)[C@@H](NC(=O)[C@H](CO)NC(=O)[C@H](Cc1ccc(O)cc1)NC(=O)[C@H](CC(=O)O)NC(=O)[C@H](CO)NC(=O)[C@@H](NC(=O)[C@H](Cc1ccccc1)NC(=O)[C@@H](NC(=O)CNC(=O)[C@H](CCC(N)=O)NC(=O)C(C)(C)NC(=O)[C@@H](N)Cc1ccc(O)cc1)[C@@H](C)O)[C@@H](C)O)[C@@H](C)CC)C(=O)N[C@@H](CCC(=O)O)C(=O)N[C@@H](Cc1ccc(O)cc1)C(=O)N[C@@H](CC(C)C)C(=O)N[C@@H](CC(C)C)C(=O)N[C@@H](CCC(=O)O)C(=O)NCC(=O)NCC(=O)N1CCC[C@H]1C(=O)N[C@@H](CO)C(=O)N[C@@H](CO)C(=O)NCC(=O)N[C@@H](C)C(=O)N1CCC[C@H]1C(=O)N1CCC[C@H]1C(=O)N1CCC[C@H]1C(=O)N[C@@H](CO)C(N)=O", "note": "[Compound 13]", "values": [
      {"measurement": "EC50", "setting": "GIPR", "value": "> 1.5", "unit": "nM"},
      {"measurement": "EC50", "setting": "GLP-1R", "value": "> 2.4", "unit": "nM"},
      {"measurement": "Cumulative Food Consumption (g) 0-48 hr", "setting": "[1]; 0-48 hr", "value": "4.1*** g"},
      {"measurement": "Cumulative Food Consumption (g) 0-96 hr", "setting": "[1]; 0-96 hr", "value": "11.2*** g"},
      {"measurement": "Delta Blood Glucose (mM)", "setting": "[1]; 4 hr post treatment", "value": "-7.4* mM"},
      {"measurement": "Delta Blood Glucose", "setting": "[1]; 8 hr post treatment", "value": -5.7, "unit": "mM"},
      {"measurement": "Delta Blood Glucose (mM)", "setting": "[1]; 12 hr post treatment", "value": "-9.4** mM"},
      {"measurement": "Delta Blood Glucose (mM)", "setting": "[1]; 24 hr post treatment", "value": "-14.4*** mM"},
      {"measurement": "Delta Blood Glucose (mM)", "setting": "[1]; 48 hr post treatment", "value": "-13.9*** mM"},
      {"measurement": "Body Weight Change (%) 48 hr", "setting": "[1]; 48 hr", "value": "-10.3*** %"},
      {"measurement": "Delta Blood Glucose (mM)", "setting": "[1]; 72 hr post treatment", "value": "-12.1*** mM"},
      {"measurement": "Delta Blood Glucose", "setting": "[1]; 96 hr post treatment", "value": -5.6, "unit": "mM"},
      {"measurement": "Body Weight Change (%) 96 hr", "setting": "[1]; 96 hr", "value": "-6.3*** %"},
      {"measurement": "EC50", "setting": "GCGR", "value": "> 1.8", "unit": "nM"}
    ]}
  ]
}
